In paper PMC10638440, “Structural basis of bile salt extrusion and small-molecule inhibition in human BSEP” (Nature Communications, 2023):

Columns and labels:
[1] = target: T1, BSEP (Homo sapiens, UniProt O95342); assay: cryo-EM structure of vanadate-trapped BSEP at […] Å; assay type: binding; design: gene ABCB11; full-length wild-type, nanodisc-reconstituted
[2] = target: T1, BSEP; design: gene ABCB11
[3] = target: T2, BSEPE1244Q (Homo sapiens, UniProt O95342, E1244Q); assay: cryo-EM structure at […] Å; assay type: binding
T2 construct: gene ABCB11; full-length, nanodisc-reconstituted

[4] = target: T3, BSEP N996A (Homo sapiens, UniProt O95342, N996A); assay: GBM-stimulated ATPase activity ([…] GBM); assay type: biochemical
T3 construct: gene ABCB11; full-length
T3 sequence (O95342 whole entry N996A): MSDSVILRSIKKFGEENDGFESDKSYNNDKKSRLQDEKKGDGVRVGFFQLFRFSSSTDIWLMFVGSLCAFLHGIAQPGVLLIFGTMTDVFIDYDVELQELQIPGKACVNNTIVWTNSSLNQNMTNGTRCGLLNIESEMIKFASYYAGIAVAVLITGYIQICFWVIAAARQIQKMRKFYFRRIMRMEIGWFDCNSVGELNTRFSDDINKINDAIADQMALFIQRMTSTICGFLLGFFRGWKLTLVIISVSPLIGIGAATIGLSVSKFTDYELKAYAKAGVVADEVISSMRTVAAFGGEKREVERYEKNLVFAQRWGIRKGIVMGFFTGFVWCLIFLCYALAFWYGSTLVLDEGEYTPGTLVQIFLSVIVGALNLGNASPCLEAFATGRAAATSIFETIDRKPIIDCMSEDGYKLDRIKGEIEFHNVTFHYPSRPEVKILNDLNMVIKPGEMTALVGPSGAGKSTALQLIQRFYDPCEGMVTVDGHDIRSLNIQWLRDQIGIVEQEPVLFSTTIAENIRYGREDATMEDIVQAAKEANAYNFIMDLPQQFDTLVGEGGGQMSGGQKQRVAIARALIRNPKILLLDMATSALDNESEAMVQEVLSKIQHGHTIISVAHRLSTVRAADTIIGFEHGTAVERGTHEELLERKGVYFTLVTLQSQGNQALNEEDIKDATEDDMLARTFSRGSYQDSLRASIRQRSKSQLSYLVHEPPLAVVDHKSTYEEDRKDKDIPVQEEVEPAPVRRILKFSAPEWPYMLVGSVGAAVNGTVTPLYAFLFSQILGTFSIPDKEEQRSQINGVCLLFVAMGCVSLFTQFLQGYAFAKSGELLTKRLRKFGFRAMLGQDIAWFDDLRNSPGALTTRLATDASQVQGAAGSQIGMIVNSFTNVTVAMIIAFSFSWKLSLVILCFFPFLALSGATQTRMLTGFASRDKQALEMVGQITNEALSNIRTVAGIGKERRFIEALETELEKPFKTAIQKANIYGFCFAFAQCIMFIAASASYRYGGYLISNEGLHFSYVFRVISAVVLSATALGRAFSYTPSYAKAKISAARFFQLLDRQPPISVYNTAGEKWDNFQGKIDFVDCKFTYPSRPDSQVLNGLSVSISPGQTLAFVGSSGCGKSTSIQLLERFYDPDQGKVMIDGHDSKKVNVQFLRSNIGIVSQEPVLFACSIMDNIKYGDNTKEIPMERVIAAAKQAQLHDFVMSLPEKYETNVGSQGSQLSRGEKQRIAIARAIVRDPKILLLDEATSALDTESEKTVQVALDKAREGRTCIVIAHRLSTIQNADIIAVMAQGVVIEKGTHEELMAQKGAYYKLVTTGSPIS

T1 sequence (O95342 whole entry): as the sequence (O95342 whole entry N996A) above, with A996N counted along it
T2 sequence (O95342 whole entry E1244Q): as the sequence (O95342 whole entry N996A) above, with A996N, E1244Q counted along it

Structure (SMILES): Nc1ncnc2c1ncn2[C@@H]1O[C@H](COP(=O)(O)OP(=O)(O)O)[C@@H](O)[C@H]1O [ADP]
- cryo-EM structure of vanadate-trapped BSEP at 2.8 Å [1]: trapping ADP and preventing its release from NBS2

Structure (SMILES): Nc1ncnc2c1ncn2[C@@H]1O[C@H](CO[P@@](=O)(O)O[P@](=O)(O)OP(=O)(O)O)[C@@H](O)[C@H]1O [ATP]
- Km [2]: 207 µM
- cryo-EM structure at 3.0 Å [3]: We observed two distinct EM densities in the two NBSs, each corresponding to an ATP molecule

Structure (SMILES): COc1ccc(Cl)cc1C(=O)NCCc1ccc(S(=O)(=O)NC(=O)NC2CCCCC2)cc1 [GBM, glibenclamide]
- GBM-stimulated ATPase activity (300 μM GBM) [4]: N996A and S1022F exhibit increased basal ATPase activity compared to the wild-type BSEP, and their activity is stimulated by GBM
